# Experimental data as given in patent US20130095059A1, “INHALED NO DONOR KMUPS DERIVATIVE PREVENTING ALLERGIC PULMONARY VASCULAR AND BRONCHIAL INFLAMMATION VIA SUPPRESSED CYTOKINES, INOS AND INFLAMMATORY CELL COUNTS IN ASTHMA MODEL” (priority 2007, published 2013).
# Legend:
# 5-HT2C receptor = target: T1, 5-HT2C receptor (Homo sapiens, UniProt P28335); assay: Displacement of radioligand binding, 5-HT2C; conditions: [^3H]-mesulergine, human recombinant CHO-K1 cells
# T1 construct: full length clones of 5-HT2A, 5-HT2B and 5-HT2C receptor were prepared from CHO-K1 cells; expressed in transfected cells; host or cells: CHO-K1
# T1 sequence (P28335 33-458): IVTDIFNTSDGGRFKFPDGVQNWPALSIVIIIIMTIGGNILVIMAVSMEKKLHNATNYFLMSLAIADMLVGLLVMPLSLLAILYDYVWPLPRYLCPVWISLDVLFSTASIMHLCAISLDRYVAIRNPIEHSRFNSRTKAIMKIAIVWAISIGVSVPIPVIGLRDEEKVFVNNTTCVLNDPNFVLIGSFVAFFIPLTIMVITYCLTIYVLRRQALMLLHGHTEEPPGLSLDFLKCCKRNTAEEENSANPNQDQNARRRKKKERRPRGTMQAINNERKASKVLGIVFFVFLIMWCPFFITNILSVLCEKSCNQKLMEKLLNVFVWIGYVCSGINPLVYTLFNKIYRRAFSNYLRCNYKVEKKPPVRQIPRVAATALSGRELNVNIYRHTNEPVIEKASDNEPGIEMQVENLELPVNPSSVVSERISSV
# Protocol: Displacement of Radioligand Binding Assay
# As described previously, full length clones of 5-HT2A, 5-HT2B and 5-HT2C receptor were prepared from CHO-K1 cells. […] IC50 represents the concentration of competing ligand which displaces 50% of the specific binding of the radioligand. Ki values for competition curves were calculated using the Cheng-Prusoff equation (Cheng, 2001).
# PCNA = assay: PASMCs proliferation (PCNA) in MCT-treated lung tissues; assay type: in vivo, rats; conditions: day 21 after MCT injection
# Protocol: We evaluated proliferating cell nuclear antigen (PCNA) to assess PASMCs proliferation in rats treated with MCT alone or with KMUP-1. Lung tissue sections were de-paraffinized in xylene and then treated with a graded series of alcohol washes, rehydrated in PBS (pH 7.5), and incubated with target retrieval solution (DAKO Co, Tokyo, Japan) in a water bath at 90° C. for 20 min. Endogenous peroxidase activity was blocked with H2O2 in PBS (3%, vol/vol) for 5 min. Slides were then washed in PBS, incubated for 30 min in a protein blocking solution, and incubated for 30 min with anti-PCNA mouse monoclonal antibody (PC-10, 1:200, Dako). Antibodies were washed off, and the slides were processed with an […] LSAB and system horseradish peroxidase detection kit (DAKO Co, Tokyo, Japan). Brown color was generated with a DAB substrate, and nuclei were counter-stained with hematoxylin.
# 5-HTT = assay: 5-HT-induced 5-HTT expression in PASMCs (Western blotting); assay type: cell-based, Wistar rats
# Protocol: (§1) PASMCs were stimulated with 5-HT or not, as indicated. Cells were treated with KMUP-1 for 24 h before 5-HT stimulation. Whole lysates were collected and resolved by SDS-PAGE as previously described. Primary antibodies were anti-β-actin at: 1:10,000 dilution and anti-RhoA, anti-ROCK, antiphospho-ERK1/2, anti-phospho-AKT, anti-ERK1/2, anti-AKT, anti-5HTT, anti-5-HT2B and anti-eNOS at 1:1000. All blots were incubated with antibodies at 4° C. overnight. After being washed, the appropriate secondary antibodies were added at a dilution of 1:1000 for 1 h at room temperature. After extensive washing, blots were developed with a Super Signal enhanced chemiluminescence kit (Biorad, CA, USA) and visualized on Kodak AR film.
# (§2) The expression of RhoA/ROCK and phosphorylation of ERK1/2 and AKT kinase in PASMCs were assessed by incubating the PASMCs with 5-HT (10 μM) for 15 min (peak time for RhoA/ROCK, ERK1/2 and AKT phosphorylation) and 5-HTT for 10 min (peak time for 5-HTT) after KMUP-1 (1-100 μM) was added to the culture of PASMCs for 24 h.
# ROCK = assay: 5-HT-induced ROCK expression in PASMCs; assay type: cell-based, Wistar rats; conditions: 1-100 μM, 24 h
# Protocol: as §1, §2
# AKT = assay: 5-HT-induced AKT phosphorylation in PASMCs; assay type: cell-based, Wistar rats; conditions: 1-100 μM, 24 h pre-incubation
# Protocol: as §1, §2
# MMP-9 = assay: Ovalbumine model, MMP-9 expression, zymography and immunostaining; assay type: in vivo, BALB/c mice
# Protocol: (§3) In this long-term experiment, 6-8 week old BALB/c female mice were sensitized on days 1 and 8 by intra-peritoneal injection (i.p.) of ovalbumine (10 μg) (Sigma-Aldrich, Schnelldorf, Germany) adsorbed to 2 mg aluminum hydroxide (AlumInject; Perbio, Erembodegem, Belgium). Mice were divided into three groups. In Group 1, a control group was only exposed to saline nebulization by aerosol. The other 2 groups were subjected to ovalbumine (1%) nebulization. Before each challenge with ovalbumine, mice were either exposed to saline nebulization (Group 2) or KMUP-1 nebulization (5 mM) for 30 min by aerosol (Group 3).
# The gelatinolytic activity of MMP-9 was measured by gelatin zymography as described previously (Cataldo D D, et al., 2002). Briefly, BALF (10 μl) was subjected to electrophoresis in 10% polyacrylamide gel containing gelatin (1 mg/ml). The gel was washed in 2.5% Triton X-100 to permit re-naturation of gelatinases and stained with Coomassie blue after overnight incubation. Destaining visualized clear zones of lysis against a blue background indicated the gelatinase activity (Hibbs, M S, et al., 1985).
# The lung tissues were homogenized, washed with PBS and incubated in lysis buffer in addition to a protease inhibitor cocktail (Sigma, St. Louis, Mo.) to obtain extracts of lung proteins. A Western blot analysis was performed as described previously (Wu B N, et al., 2006). The samples were loaded to 10% SDS-PAGE gels and were separated at 120 V for 90 min. The blots were incubated with anti-eNOS antibody diluted at a ratio of 1:500, anti-sGCα1 antibody diluted at a ratio of 1:2000, anti-PKG antibody diluted at a ratio of 1:500, anti-VCAM-1 antibody diluted at a ratio of 1:500, anti-ICAM-1 antibody diluted at a ratio of 1:500, and anti-MMP-9 antibody diluted at a ratio of 1:600 overnight at 4° C. The membranes were stripped and re-blotted with anti-actin antibody (Sigma, St. Louis, Mo.) to verify the equal loading of protein in each lane.
# Immunohistochemical analysis of eNOS enhancement by KMUP-1 was performed as follows. The lungs were perfused with saline followed by 10% formalin and then placed in 10% formalin for paraffin embedding. The lung tissues were cut into […] sections onto slides, dewaxed in 100% xylene, and then re-hydrated in graded alcohol solutions. Throughout the procedures, slides were washed as appropriate in PBS. Antigen retrieval was performed by microwave treatment for eNOS immunostaining. Sections were treated with 3% H2O2 (10 min) to inhibit endogenous peroxidases and incubated with normal serum (60 min) to reduce nonspecific binding of secondary antibodies. Sections were then incubated at 4° C. overnight with eNOS antibodies. After washing off unbounded primary antibodies, sections were incubated with secondary biotinylated antibodies against mouse or rabbit (DAKO Co., Japan) (60 min), followed by incubation in avidin/biotin/horseradish peroxidase complex (DAKO Co., Japan) (30 min) Subsequently, peroxidase activity was visualized by incubation (3 min) with 0.05% 3,3′-diaminobenzidine (DAKO Co., Japan), which gives a brown reaction product. The reaction was stopped by washing with water. The slides were counterstained with hematoxylin. For immunostaining of MMP-9 in lung tissue, the de-paraffinized 3-5 μm sections of lung tissue was performed as above eNOS, but using MMP-9 antibody.
# IL-5 = assay: Ovalbumine model, plasma IL-5 (ELISA); assay type: in vivo, mice; conditions: mice sensitized and challenged by ovalbumine
# Protocol: as §3
# IL-13 = assay: Ovalbumine model, plasma IL-13 (ELISA); assay type: in vivo, mice; conditions: mice sensitized and challenged by ovalbumine
# Protocol: as §3
smiles,measurement,setting,value
"Cn1c(=O)c2c(ncn2CCN2CCN(c3ccccc3Cl)CC2)n(C)c1=O [KMUP-1, 7-[2-[4-(2-chlorophenyl)piperazinyl]ethyl]-1,3-dimethylxanthine]",IC50,5-HT2C receptor,408 nM
same,Ki,5-HT2C receptor; Cheng-Prusoff,214 nM
same,number of PCNA-positive cells in pulmonary artery walls,PCNA,markedly lower
same,5-HT-induced expression of 5-HTT,5-HTT; 10 μM,inhibited
same,5-HT-induced expression of 5-HTT,"5-HTT; 1-100 μM, 24 h, then 5-HT 10 min",dose-dependently inhibited
same,5-HT-induced ROCK,ROCK,significantly inhibited
same,5-HT-stimulated AKT phosphorylation,AKT,concentration-dependently reduced
same,increased MMP-9 expression by ovalbumine sensitization,"MMP-9; 28-day experiment, nebulization",significantly reduced
same,zymography of MMP-9,"MMP-9; BALF, versus ovalbumine",decreased
same,MMP-9 positive cells (immunostaining),MMP-9; ovalbumine-sensitized and -challenged mice,hardly detected
same,IL-5 levels in the plasma,IL-5,inhibited
same,IL-13 levels in the plasma,IL-13,inhibited
